Experimental data from patent US12065468B2, “Heme-binding small peptide” (priority 2021, dated 2024).

Tested on: S. meliloti
Test: ICP-MS iron content of cells
Assay type: cell-based, Sinorhizobium meliloti
Conditions: 2 μM
Experimental: ICP-MS: 200 μL of protein sample was mixed with 2 ml of 2% HNO3 and ICP-MS was performed as described previously^84. For bacterial samples, 1 ml of sample was spun down and the pellet was resuspended in 40 μL of 100% HNO3 and heated at 98° C. for 1 hour. The supernatant of the solution was mixed with metal free water to make up to 2 mL and ICP-MS analysis was performed as described previously^84. Same number of cells were spun down for protein analysis through […] and data were normalized to the amount of protein in each sample. For ICP-MS analysis of nodules same procedure was followed, except nodules were first crushed in PBS, portion of sample kept aside for protein quantification and then remaining was treated with HNO3. Agilent ICP-MS instrumentation with MassHunter 4.4 was used to collect data.

RNGCIVDPRCPYQQCRRPLYCRRR [NCR247]
total iron content of cells: elevated total iron content of the cells
total iron content of cells (listed as L-NCR247): Increase in Fe content
